Each compound was assayed against T1, mutated beta-galactosidase (p.R60H canine GLB1) in GM11473 fibroblasts (Canis lupus familiaris, UniProt Q9TRY9, R60H) (assay: Enhancement of β-galactosidase activity measured in GM1 fibroblasts (GM11473), 4-MU-β-D-galactopyranoside substrate). Details: increase in β-galactosidase enzyme activity vs non-treated cells, concentrations between 6 and 50 μM, 4 days incubation.
T1 construct: host or cells: GM11473 canine GM1 gangliosidosis fibroblasts
T1 sequence (Q9TRY9 30-668 R60H): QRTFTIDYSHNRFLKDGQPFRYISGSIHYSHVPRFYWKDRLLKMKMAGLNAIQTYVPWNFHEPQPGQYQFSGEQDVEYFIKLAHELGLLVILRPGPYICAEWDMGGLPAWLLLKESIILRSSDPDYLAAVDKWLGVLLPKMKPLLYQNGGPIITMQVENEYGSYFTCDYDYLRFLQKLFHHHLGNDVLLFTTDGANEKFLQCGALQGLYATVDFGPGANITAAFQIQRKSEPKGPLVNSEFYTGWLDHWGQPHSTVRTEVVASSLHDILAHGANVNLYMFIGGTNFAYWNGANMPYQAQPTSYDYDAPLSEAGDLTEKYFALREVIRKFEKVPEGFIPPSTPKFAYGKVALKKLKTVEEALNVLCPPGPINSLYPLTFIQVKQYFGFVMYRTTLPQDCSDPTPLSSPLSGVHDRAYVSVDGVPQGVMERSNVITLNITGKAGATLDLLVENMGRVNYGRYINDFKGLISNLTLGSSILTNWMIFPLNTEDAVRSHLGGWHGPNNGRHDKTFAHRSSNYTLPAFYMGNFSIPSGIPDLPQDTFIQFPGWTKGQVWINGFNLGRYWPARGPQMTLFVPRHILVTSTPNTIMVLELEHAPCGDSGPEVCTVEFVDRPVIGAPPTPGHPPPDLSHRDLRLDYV
Format: cell-based

SMILES	Activity in GM11473 fibroblasts
O=S(=O)(NCc1ccc2c(c1)OCCO2)c1ccc(Nc2nccc3ccc(Cl)cc23)cc1 [Example 75, 4-((7-chloroisoquinolin-1-yl)amino)-N-((2,3-dihydrobenzo[b][1,4]dioxin-6-yl)methyl)benzenesulfonamide]	B (Increase in comparison with non-treated of >1.7-2.5 fold is shown as B)
O=S(=O)(NCc1ccc2nsnc2c1)c1ccc(Nc2nccc3ccc(Cl)cc23)cc1 [Example 76, N-(benzo[c][1,2,5]thiadiazol-5-ylmethyl)-4-((7-chloroisoquinolin-1-yl)amino)benzenesulfonamide]	C (Increase in comparison with non-treated of 1.2-1.7 fold is shown as C)
O=S(=O)(NC1CCc2ccccc2C1)c1ccc(Nc2nccc3ccc(Cl)cc23)cc1 (stereo not shown) [Example 77, 4-((7-Chloroisoquinolin-1-yl)amino)-N-(1,2,3,4-tetrahydronaphthalen-2-yl)benzenesulfonamide]	A (Increase in comparison with non-treated of >2.5 fold is shown as A)
O=S(=O)(NCC1CCc2ccccc2C1)c1ccc(Nc2nccc3ccc(Cl)cc23)cc1 (stereo not shown) [Example 78, 4-((7-Chloroisoquinolin-1-yl)amino)-N-((1,2,3,4-tetrahydronaphthalen-2-yl)methyl)benzenesulfonamide]	A (Increase in comparison with non-treated of >2.5 fold is shown as A)

— patent US11440898B2, “Isoquinoline compounds, methods for their preparation, and therapeutic uses thereof in conditions associated with the alteration of the activity of beta galactosidase” (Minoryx Therapeutics S.L., priority 2016, dated 2022)
